Test results taken from patent US20140303242A1, “Sparstolonin B Based Pharmaceutical Agent to Treat Pathological Angiogensis” (University of South Carolina, priority 2013, published 2014).

Key:
[1] = test system: HUVECs; experiment: Cytotoxicity on HUVECs; assay type: cell-based, human; details: concentrations up to 100 μM
[2] = test system: HUVECs; experiment: Live/Dead cell viability assay; assay type: cell-based; details: HUVECs, 1, 10, 100 μM, 4 h
Procedure: A Live/Dead assay (Invitrogen, Eugene, Oreg.) was utilized to investigate the effect of SsnB on cell viability. The Matrigel tube formation experiment was repeated with HUVECs in chamber slides at a concentration of 20,000 cells per well. The cells were treated with SsnB (1, 10, or 100 μM) or Vehicle Control (0.1% DMSO) as described above. After four hours of incubation, the slides were removed. A chamber slide containing HUVECs treated with 70% methanol for 30 minutes was used as a control for dead cell staining. The slides were aspirated and washed with PBS, and EthD-1 and calcein AM were added to each well. The plates were incubated in the dark, and images were taken with a light microscope at 10× magnification.

[3] = test system: monocytic THP-1 cells; experiment: Cytotoxicity on monocytic THP-1 cells; assay type: cell-based; details: concentrations up to 100 μM
[4] = test system: HMVECs; experiment: Matrigel tube formation assay (cardiac HMVECs); assay type: cell-based, human; details: 1, 10, 100 μM, 4 h
Procedure: To initially determine if SsnB inhibited pro-angiogenic cell functions, a tube formation assay with Matrigel was performed. Growth factor reduced Matrigel (BD Biosciences, Bedford, Mass.) was added to the wells of a 96 well polystyrene culture plate and incubated at 37° C. for 30 minutes. Cells (HUVECs, HCAECs, or HMVECs at passage 2 to 4) were added to each well to reach a final number of 20,000 cells per well. SsnB was added to the wells at a concentration of 1, 10, or 100 μM. Endothelial cell medium with DMSO (0.1%) was used as a vehicle control. Each group contained 4 replicates. The plates were placed in an incubator for 4 h. During the incubation, the endothelial cells formed elongated structures called cords, also known as tubes. After 4 h, neutral buffered formalin was added to fix the cells. Pictures of three non-overlapping fields were taken from each well. The lengths of single cell endothelial cords were measured with Image-Pro Plus (Media Cybernetics, Silver Spring, Md.), and the sum of tube lengths for each well was determined. The average total length and standard deviation for each group were determined, and the appropriate statistical tests (ANOVA and Newman-Keuls) were completed. The tube formation assay was replicated three times for both HUVECs and HCAECs. The assay was also repeated with cardiac HMVECs.

[5] = test system: HUVECs; experiment: Microarray gene expression analysis (HUVECs); assay type: cell-based, human
Procedure: Confluent plates (100×20 mm polystyrene, tissue culture-treated petri plates coated with 0.1% gelatin, 75% confluent) of HUVECs and HCAECs (four plates for HUVECs, n=2, and six plates for HCAECs, n=3) were chosen for the microarray experiments. Half of the plates received complete growth medium (10% fetal bovine serum with endothelial mitogen) containing vehicle control (0.1% DMSO), and the remaining plates received complete growth medium containing 100 μM SsnB. The plates were incubated for 24 h to allow SsnB to have an effect on cellular gene expression. Following incubation, RNA isolation was completed with the RNeasy Mini kit from Qiagen. The cells were lysed, and RNA was isolated by using the RNeasy spin columns and following the protocol provided by Qiagen. Purified RNA was sent to the Medical University of South Carolina Proteogenomics Facility for microarray analysis. The GeneChip Human Genome U133 Plus 2.0 Array was utilized to track changes in gene expression due to SsnB treatment. Complete data was uploaded to the NCBI Gene Expression Omnibus database (accession number GSE44598).
Microarray data analysis, including data normalization (robust multi-array average), identification of differentially expressed genes (comparative analyses with dChip software), and heat map construction, was carried out to determine how SsnB affects gene expression and affected pathways (n=2 for HUVECs and n=3 for HCAECs). After a careful analysis of the microarray data, several key genes were chosen for qRT-PCR to verify the gene expression results. The genes were chosen based on the following criteria: fold change ≧2, p<0.05, unpaired t-test with a false discovery rate approximating 0%, appearing in both data sets (HUVECs and HCAECs), and gene function relating to cell proliferation and/or angiogenesis. For qRT-PCR, the expression levels were normalized to the housekeeping gene GAPDH, and RNA levels were compared between groups with the ΔΔCt method.

[6] = HUVECs, 100 μM SsnB vs vehicle control, 24 h
[7] = microarray data, cell type not specified

**Q.** With O=c1occ2c3c(ccc(O)c13)Oc1ccc(O)cc1-2 [SsnB, Sparstolonin B] as the molecule, how does the cytotoxic effects [1] read?
**A.** The cytotoxic effects was “does not exhibit cytotoxic effects”.

**Q.** What about the “cell viability (live/dead assay)” value [2] of the same molecule?
**A.** The value was “no effect on cell viability”.

**Q.** And the cytotoxic effects [3]?
**A.** Its cytotoxic effects is “does not exhibit cytotoxic effects”.

**Q.** What about the “cardiac HMVEC tube formation” value [4] of the same molecule?
**A.** Its value is “dose-dependent inhibition”.

**Q.** What about the “ALDH3A1 Microarray Fold change value” [5, 6] of the same molecule?
**A.** Its value is 7.7.

**Q.** And the “ANLN Microarray Fold change value” [5, 6]?
**A.** Its value is 0.09.

**Q.** And the “CCNB1 Microarray Fold change value” [5, 6]?
**A.** Its value is 0.19.

**Q.** And the “CCNE2 Microarray Fold change value” [5, 6]?
**A.** The value was 0.24.

**Q.** And the “CDC2 Microarray Fold change value” [5, 6]?
**A.** The value was 0.08.

**Q.** And the “CDC6 Microarray Fold change value” [5, 6]?
**A.** The value was 0.23.

**Q.** And the “CDKN3 Microarray Fold change value” [5, 6]?
**A.** Its value is 0.19.

**Q.** And the “DIAPH3 Microarray Fold change value” [5, 6]?
**A.** The value was 0.34.

**Q.** What about the “HMMR Microarray Fold change value” [5, 6] of the same molecule?
**A.** Its value is 0.11.

**Q.** What about the “KITLG Microarray Fold change value” [5, 6] of the same molecule?
**A.** The value was 6.2.

**Q.** And the “number of differentially expressed genes in response to SsnB exposure” value ([5]; HUVECs, 100 μM, 24 h, fold change ≧2, p<0.05)?
**A.** Its value is 916 genes.

**Q.** And the “KIF18A expression in microarray data” value [5, 7]?
**A.** Its value is “downregulated”.

**Q.** What about the “TACC3 expression in microarray data” value [5, 7] of the same molecule?
**A.** Its value is “downregulated”.

**Q.** What about the “aurora kinases (AURKA and AURKB) expression in microarray data” value [5, 7] of the same molecule?
**A.** The value was “downregulated”.
